How the values were obtained:
[1] = molecular target: T1, main protease (M^pro) of SARS-COV-2 (Severe acute respiratory syndrome coronavirus 2, UniProt P0DTD1); assay: TEM observation of the reaction of MCAP-AuNP with M^pro after M^pro inhibitor treatment; type: biochemical; details: TEM images, FIG. 10B-10D
[2] = molecular target: T1, main protease (M^pro) of SARS-COV-2; assay: biochemical

Row | SMILES | activity of M^pro after M^pro inhibitor treatment (effect on MCAP-AuNP, TEM image) [1] | IC50 [2] [µM]
1 | Cc1cccc(C)c1OCC(=O)N[C@@H](Cc1ccccc1)[C@@H](O)C[C@H](Cc1ccccc1)NC(=O)[C@H](C(C)C)N1CCCNC1=O [lopinavir] | inhibited | 10.7
2 | COc1ccc([C@@H]2CC(=O)c3c(O)cc(O)cc3O2)cc1O [hesperetin] | inhibited | 43.1
3 | CC(=O)N[C@@H](CC(C)C)C(=O)N[C@@H](CC(C)C)C(=O)N[C@H](C=O)CCCNC(=N)N [leupeptin] | inhibited | 28.6

Reference: patent publication US20250298028A1, “METHOD FOR SCREENING DRUGS FOR TREATING MULTIPLE-VARIANT CORONAVIRUS DISEASE” (KOREA UNIVERSITY RESEARCH AND BUSINESS FOUNDATION, priority 2022, published 2025)
